# Laboratory results reported in paper PMC3551756, “HIV-1 Fusion Is Blocked through Binding of GB Virus C E2D Peptides to the HIV-1 gp41 Disulfide Loop” (PLoS ONE, 2013).
# Experiments:
# CD4 = CD4 surface expression, flow cytometry; assay type: cell-based, human; settings: PBMC and TZM-bl cells; E2 peptides 25 µM, PMA 40 ng/ml; 6 hr; FACS; RTCN vs mock; average of two independent experiments each in triplicate
# Protocol: (§1) PHA/IL-2-stimulated PBMC or TZM-bl cells were incubated with E2 peptides (25 µM), phorbol 12-myristate 13-acetate (PMA; 40 ng/ml), SDF-1α (1 µg/ml) or RANTES (50 nM) for 6 hr. CD4, CXCR4 and CCR5 surface expression was analyzed by using standard FACS staining protocols. Cells were washed with PBS and incubated for 30 min at 4°C with PE-labeled antibodies (CD4 clone SK3, CXCR4 clone 12G5, and CCR5 clone 2D7, BD Biosciences, Germany). Subsequently, washed cells were resuspended in PBS and analyzed with a FACSCalibur™ flow cytometer (BD Biosciences, Germany).
# (§2) The non-HIV-1-inhibitory peptide P28 derived from the C-terminal part of E2 (residue 271 to 290), served as a negative control.
# (§3) CD4, CXCR4 and CCR5 expression on PBMC (A) and TZM-bl cells (B) after preincubation with E2 peptides were determined by flow cytometry analysis. […] Percentages illustrate the ratio-to-cell-negative (RTCN) values that were calculated from the percentage of positive cells and the fluorescence intensity of peptide-incubated cells compared to mock-incubated cells. Columns show average values ±SD of two independent experiments each performed in triplicate. *: p<0.05; **: p<0.01 (mock- vs. inhibitor-incubated cells).
# [1] = target: E2_340-Fc / HIV-1 gp41MN interaction (Human immunodeficiency virus type 1 group M subtype B, UniProt P05877); assay type: binding; settings: ELISA, immobilized gp41MN, E2_340-Fc constant (5 µg/ml), increasing peptide; three independent experiments each in duplicate
# Protocol: Flat-bottom, 96-well Microtest ELISA plates (Sarstedt, Germany) were coated overnight at 4°C with recombinant HIV-1 gp120 (0.5 µg/ml), gp41 (0.22 µg/ml) proteins, or with streptavidin (4 µg/ml) in coating buffer (0.1 M NaHCO3, 0.1 M Na2CO3, pH 9.87). Nonspecific binding was blocked (blocking buffer: 1% BSA, 0.1% Tween-20 in phosphate buffer, pH 7.2) for 1 h at room temperature, followed by washing steps (wash buffer: 0.1% Tween in phosphate buffer, pH 7.2). […] All plates were then incubated with recombinant E2_340-Fc or Fc protein in serial dilutions in sample buffer (phosphate buffer, pH 7.2) for 3 hr at room temperature. To perform the competitive ELISAs, the recombinant E2_340-Fc protein was adjusted at 5 µg/ml and the monoclonal gp41 antibodies (246-D, F240, T32, D50, 2F5, 4E10, Chessie 8 [all: NIH AIDS Research and Reference Reagent Program], and 5F3 [Polymun, Austria]) at 100 µM. After washing procedure, the plates were incubated for 1 h with polyclonal rabbit anti-human IgG peroxidase antibody (Dako, Germany) 1∶6000 in sample buffer and washed. Plates were developed with TMB peroxidase substrate solution (KPL, USA), or with OPD/H2O2 solution in the dark. Absorbances (ODs) were read at 450 or 492 nm, respectively, using a multi-channel photometer (ELISA-Reader AxSYM, Abbott Laboratory, USA).
# (C) E2 peptides with increasing amounts were added to recombinant E2_340-Fc protein (at constant concentration) and then transferred to immobilized recombinant gp41MN.
# Competitive binding of E2 and gp120 peptides (N35, N35s) with recombinant E2_340-Fc protein to immobilized recombinant gp41MN. Simultaneously to E2_340-Fc incubation peptides of E2 or gp120 were added with increasing amounts.
# [2] = tested on: 6-helix bundle (N36/C34-biotin); test: Inhibition of 6-HB formation, ELISA; assay type: binding, HIV-1; settings: mAb NC-1 capture, N36 0.25 µM, C34-biotin 0.25 µM, graded peptide, 30 min 37°C, triplicate
# Protocol: Briefly, 96-well polystyrene plates were coated with the 6-HB-specific monoclonal antibody, NC-1 IgG, (described by) (2 µg/ml in 0.1 M Tris, pH 8.8), and then blocked with 2% non-fat milk. N36 (0.25 µM), the tested peptides and C34 as control were added at graded concentrations into the wells. After incubation for 30 min at 37°C, C34-biotin (0.25 µM) was added, followed by incubation for 45 min at 37°C and washing with wash buffer (PBS containing 0.05% Tween-20) six times. Streptavidin-labeled horseradish peroxidase (Invitrogen, Grand Island, NY) and the substrate 3,3′,5,5′-tetramethylbenzidine (Sigma, St. Louis, MO) were added sequentially. Absorbance at 450 nm (OD450) was measured. The percent inhibition of 6-HB formation by the peptides was calculated as described before.
# Figure 5 E2-derived peptides bind to the disulfide loop of gp41. (A) Illustration of gp41 variants (strains IIIB, MN) and peptides (N36, C34) used in ELISA as well as the binding epitopes of different monoclonal gp41 antibodies. Gp41 consists of the N-terminal fusion peptide (FP), the N- and C-heptad repeats (NHR, CHR) that are connected by the disulfide loop region (C-C loop), the membrane proximal external region (MPER), the α-helical transmembrane-spanning domain (TM), and the cytoplasmic tail (CP). […] Each sample was tested in triplicate. This experiment was repeated twice and similar results were obtained. […]
# CXCR4 = CXCR4 surface expression, flow cytometry; assay type: cell-based, human; settings: PBMC and TZM-bl cells; E2 peptides 25 µM, SDF-1α 1 µg/ml; 6 hr; FACS; RTCN vs mock; average of two independent experiments each in triplicate
# Protocol: as §1, §2, §3
# [3] = tested on: HIV-1 NL4-3 / TZM-bl cells; test: HIV-1 virion-based (BlaM-Vpr) virus-cell fusion assay; settings: standard (pre-CD4 binding) and TAS (post-CD4 binding, 23°C 1 h then 37°C 2 hr); E2 peptides 20 µM, AMD-3100 10 µM, 2F5 0.5 µg/ml, b12 and B4 0.3 µg/ml; five independent experiments each in triplicate
# Protocol: HIV-1 virions containing the BlaM-Vpr chimera were produced as previously described [33]. Briefly, 293T cells were co-transfected with pNL4-3 proviral DNA, pCMV-BlaM-Vpr, and pAdVAntage vectors. After 2 days of cultivation, the virus-containing supernatant was centrifuged for 10 min at 300×g to remove cellular debris. The HIV-1 virion-containing supernatant was overlaid onto a 20% sucrose cushion and ultracentrifuged at 35000×g at 4°C for 90 min. The resulting pellet was resuspended in medium and aliquots were frozen at −80°C until usage.
# The virion-based fusion assay was performed essentially as described elsewhere [41]. Briefly, 5×10^4 TZM-bl cells were infected with sucrose-purified HIV-1 NL4-3 virions containing BlaM-Vpr (5 ng p24-Gag per approach). Under temperature-arrested state (TAS) conditions, binding of the HI virions to target cells was allowed at low temperature via spinning inoculation, for which virions were added to cells and centrifuged at 2095×g, 4°C for 30 min. […] BlaM activity was quantified using a fluorescence plate reader. The extent of virus-cell fusion was determined from the ratio of blue (460 nm) and green (510 nm) emission upon exciting the cells at 405 nm.
# To find out whether early or late steps of HIV-1 entry are affected by the E2 peptides, the E2 peptide activity was determined before and after gp120/CD4 engagement using the Vpr-β-lactamase (Vpr-BlaM) enzyme-based virus-cell fusion assay under standard (pre-CD4 binding) and temperature-arrested state (TAS; post-CD4 binding) conditions, respectively.
# The HIV-inhibitory activity of known HIV-1 entry inhibitors or respective E2 peptides was determined using a virus-cell fusion assay under standard (respective inhibitors were added simultaneously to HIV NL4-3BlaM-Vpr inoculum: pre-CD4 binding) or under TAS (temperature-arrested state) conditions (respective inhibitors were added at low temperature of 23°C for 1 h after spin-inoculation [4°C] and removal of unbound HIV-1 particles: post-CD4 binding). […] Percentages were calculated in relation to mock-treated cells. […]
# CCR5 = CCR5 surface expression, flow cytometry; assay type: cell-based, human; settings: PBMC and TZM-bl cells; E2 peptides 25 µM, RANTES 50 nM; 6 hr; FACS; RTCN vs mock; average of two independent experiments each in triplicate
# Protocol: as §1, §2, §3
# T32 = test: Unspecific binding of E2 peptides to antibody T32; settings: data not shown
# F240 = test: Unspecific binding of E2 peptides to antibody F240; settings: data not shown
# E2_340-Fc / HIV-1 gp41MN interaction, sequence (P05877 514-856): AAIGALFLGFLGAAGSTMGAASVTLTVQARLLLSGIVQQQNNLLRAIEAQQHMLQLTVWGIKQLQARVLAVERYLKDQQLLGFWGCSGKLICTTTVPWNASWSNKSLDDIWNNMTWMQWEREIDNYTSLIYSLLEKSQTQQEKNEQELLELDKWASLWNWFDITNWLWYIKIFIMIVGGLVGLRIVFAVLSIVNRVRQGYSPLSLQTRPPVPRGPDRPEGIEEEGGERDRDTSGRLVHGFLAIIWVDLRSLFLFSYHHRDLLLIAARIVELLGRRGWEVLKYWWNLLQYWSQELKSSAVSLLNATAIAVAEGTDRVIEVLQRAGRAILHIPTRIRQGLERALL
compound,measurement,setting,value
CC(=O)N[C@@H](CC(C)C)C(=O)N[C@@H](CS)C(=O)N[C@@H](CC(=O)O)C(=O)N[C@@H](CS)C(=O)N1CCC[C@H]1C(=O)N[C@@H](CC(N)=O)C(=O)NCC(=O)N1CCC[C@H]1C(=O)N[C@@H](Cc1c[nH]c2ccccc12)C(=O)N[C@H](C(=O)N[C@@H](Cc1c[nH]c2ccccc12)C(=O)N[C@H](C(=O)N1CCC[C@H]1C(=O)N[C@@H](C)C(=O)N[C@@H](Cc1ccccc1)C(=O)N[C@@H](CS)C(=O)N[C@@H](CCC(N)=O)C(=O)N[C@@H](C)C(=O)N[C@H](C(=O)NCC(=O)O)C(C)C)C(C)C)C(C)C [P6-2],CD4 surface presentation,CD4,no relevant effect on HIV-1 receptor presentation
same,competition with E2_340-Fc for gp41 binding,[1],abrogated the protein-protein interaction between HIV-1 gp41 and GBV-C E2 in a dose-dependent manner
same,inhibition of 6-HB formation,[2],Neither P4-7 nor P6-2 was able to interfere with the formation of 6-HB
same,CXCR4 surface presentation,CXCR4,no relevant effect on HIV-1 receptor presentation
same,"inhibition of virus-cell fusion, standard versus TAS conditions",[3],full activity under both conditions
same,CCR5 surface presentation,CCR5,no relevant effect on HIV-1 receptor presentation
same,unspecific binding to antibody T32,T32,No unspecific binding
same,unspecific binding to antibody F240,F240,No unspecific binding
"Ac-WDRGNVTLLCDCPNGPWVWV [P4-7, 20 mer peptide presenting amino acids 37 to 56 of the GBV-C E2 protein]",CD4 surface presentation,CD4,no relevant effect on HIV-1 receptor presentation
same,competition with E2_340-Fc for gp41 binding,[1],abrogated the protein-protein interaction between HIV-1 gp41 and GBV-C E2 in a dose-dependent manner
same,inhibition of 6-HB formation,[2],Neither P4-7 nor P6-2 was able to interfere with the formation of 6-HB
same,CXCR4 surface presentation,CXCR4,no relevant effect on HIV-1 receptor presentation
same,"inhibition of virus-cell fusion, standard versus TAS conditions",[3],full activity under both conditions
same,CCR5 surface presentation,CCR5,no relevant effect on HIV-1 receptor presentation
same,unspecific binding to antibody T32,T32,No unspecific binding
same,unspecific binding to antibody F240,F240,No unspecific binding
